From US20250368633A1, “AZEPINE FUSED RING COMPOUND AS RIPK1 INHIBITOR AND USE THEREOF” (ARTIVILA BIOPHARMA, priority 2022, published 2025) come the findings set out here.

One test concerns the target T1, RIPK1 kinase (Homo sapiens, UniProt Q13546).
T1 construct: purchased Promega VA7593
T1 sequence (Q13546 1-671): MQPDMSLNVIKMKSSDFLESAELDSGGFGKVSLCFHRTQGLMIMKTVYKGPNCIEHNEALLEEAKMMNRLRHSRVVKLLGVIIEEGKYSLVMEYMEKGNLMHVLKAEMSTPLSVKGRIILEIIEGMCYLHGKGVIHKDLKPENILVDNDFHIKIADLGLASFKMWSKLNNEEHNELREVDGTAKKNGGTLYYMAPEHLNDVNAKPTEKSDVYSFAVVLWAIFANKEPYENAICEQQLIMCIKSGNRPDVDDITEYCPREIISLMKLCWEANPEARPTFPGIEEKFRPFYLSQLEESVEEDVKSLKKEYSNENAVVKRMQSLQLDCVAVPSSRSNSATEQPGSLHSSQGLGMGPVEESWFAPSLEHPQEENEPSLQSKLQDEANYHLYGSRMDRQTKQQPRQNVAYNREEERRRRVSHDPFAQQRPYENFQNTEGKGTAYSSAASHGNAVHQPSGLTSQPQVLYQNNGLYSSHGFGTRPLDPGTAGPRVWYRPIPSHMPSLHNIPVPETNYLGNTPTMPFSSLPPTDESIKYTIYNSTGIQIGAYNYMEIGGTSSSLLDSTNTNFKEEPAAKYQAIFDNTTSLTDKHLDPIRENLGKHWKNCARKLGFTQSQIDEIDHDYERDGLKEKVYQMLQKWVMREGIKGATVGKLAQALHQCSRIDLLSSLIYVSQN
The experiment in a line: In vitro RIPK1 kinase activity assay (ADP-Glo), inhibition by compounds at 1 μM. In kind it is biochemical. The following applies: compound 1 μM; ATP 10 μM; MBP substrate 100 μg/mL; read-out: RIPK1 kinase activity inhibition rate range. The procedure, abridged:
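Read by ADP-Glo chemiluminescence as percent inhibition: RIPK1 kinase, 15-min room-temperature compound preincubation, then 1-h reaction with MBP (100 μg/mL final) and ATP (10 μM final). Enzyme level was set by titration.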
Background: ADP-Glo turns the ADP formed in a reaction into a luminescent signal.

For another test, the system named is U937 cells. The experiment in a line: Inhibition rate of compound (1 μM) on necroptosis of U937 cells (TSZ-induced, CellTiter-Glo). In kind it is cell-based. Conditions: TSZ (hTNF-α, SM-164, Z-VAD-FMK) 20 hours. The gist of the method:
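Percent inhibition comes from ATP luminescence (CellTiter-Glo), referenced to wells without TSZ and wells with TSZ alone. The compound was added to U937 cells 15 min ahead of a TNF-α/SM-164/Z-VAD-FMK mix, followed by 20 h culture at 37° C, 5% CO2.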
(In ATP-based viability assays light output follows the ATP content of the culture.)

SMILES strings stand for the structures. Where only a bound is given, the exact number is not on record here.

The inhibition is the drop in the measured response relative to a control, in per cent. As for `CC(Cc1ccccc1)NC(=O)C(=O)N[C@H]1COc2ccc(C#CCCO)cc2N(C)C1=O` (mixture of isomers) [Example 37, N^1-((S)-7-(4-hydroxybut-1-yn-1-yl)-5-methyl-4-oxo-2,3,4,5-tetrahydrobenzo[b][1,4]oxazepin-3-yl)-N^2-(1-phenylpropan-2-yl)oxalamide], the inhibition at 1 µM at RIPK1 kinase lay within 50 to 74%. Further, the “Inhibition rate range of compounds (1 μM) on U937 cell necroptosis” value (from here on “Inhibition rate range of compounds”) in the test on U937 cells is given as “A (A: ≥90%)”.

`CC(NC(=O)C(=O)N[C@H]1COc2ccc(C#CCCO)cc2N(C)C1=O)c1ccccc1` (mixture of isomers) [Example 41, N^1-((S)-7-(4-hydroxybut-1-yn-1-yl)-5-methyl-4-oxo-2,3,4,5-tetrahydrobenzo[b][1,4]oxazepin-3-yl)-N^2-(1-phenylethyl)oxalamide]: the inhibition at 1 µM on RIPK1 kinase is at least 75%. The “Inhibition rate range of compounds” value in the test with U937 cells is listed as “A (A: ≥90%)”.

For the compound `CN1CCC(CC#Cc2ccc3c(c2)N(C)C(=O)[C@@H](NC(=O)C(=O)NCCc2ccccc2)CO3)C1=O` (mixture of isomers) [Example 82, N^1-((3S)-5-methyl-7-(3-(1-methyl-2-oxopyrrolidin-3-yl)prop-1-yn-1-yl)-4-oxo-2,3,4,5-tetrahydrobenzo[b][1,4]oxazepin-3-yl)-N^2-phenethyloxalamide], the inhibition at 1 µM at RIPK1 kinase was at least 75%. Besides, the “Inhibition rate range of compounds” value with U937 cells is recorded as “A (A: ≥90%)”.

Take `CN1C(=O)[C@@H](NC(=O)C(=O)NCCc2cccc(F)c2)COc2ccc(C#CCN3CCC(O)C3)cc21` (mixture of isomers) [Example 113, N^1-(3-fluorophenethyl)-N^2-((3S)-7-(3-(3-hydroxypyrrolidin-1-yl)prop-1-yn-1-yl)-5-methyl-4-oxo-2,3,4,5-tetrahydrobenzo[b][1,4]oxazepin-3-yl)oxalamide]: on RIPK1 kinase, the inhibition at 1 µM is at least 75%. The “Inhibition rate range of compounds” value in the test on U937 cells was “A (A: ≥90%)”.

Regarding `C[C@@H](NC(=O)C(=O)N[C@H]1COc2ccc(C#CCN3CCC(O)C3)cc2N(C)C1=O)c1ccccc1` (mixture of isomers) [Example 126, N^1-((3S)-7-(3-(3-hydroxypyrrolidin-1-yl)prop-1-yn-1-yl)-5-methyl-4-oxo-2,3,4,5-tetrahydrobenzo[b][1,4]oxazepin-3-yl)-N^2-((R)-1-phenylethyl)oxalamide], the inhibition at 1 µM on RIPK1 kinase was at least 75%. In addition, the “Inhibition rate range of compounds” value with U937 cells is listed as “A (A: ≥90%)”.

For `CC(CNC(=O)C(=O)N[C@H]1COc2ccc(C#CCCO)cc2N(C)C1=O)c1ccccc1` (mixture of isomers) [Example 154, N^1-((S)-7-(4-hydroxybut-1-yn-1-yl)-5-methyl-4-oxo-2,3,4,5-tetrahydrobenzo[b][1,4]oxazepin-3-yl)-N^2-(2-phenylpropyl)oxalamide], the inhibition at 1 µM on RIPK1 kinase was at least 75%. Moreover, the “Inhibition rate range of compounds” value in the test on U937 cells is given as “A (A: ≥90%)”.

With `CN1C(=O)[C@@H](NC(=O)C(=O)NCCc2ccccc2)COc2ccc(C#Cc3cccnc3)cc21` [Example 13, (S)—N^1-(5-methyl-4-oxo-7-(pyridin-3-ylethynyl)-2,3,4,5-tetrahydrobenzo[b][1,4]oxazepin-3-yl)-N^2-phenethyloxalamide], the inhibition at 1 µM at RIPK1 kinase is at least 75%. Further, the “Inhibition rate range of compounds” value in the test with U937 cells was “A (A: ≥90%)”.

Consider `CN1C(=O)[C@@H](NC(=O)C(=O)NCCc2ccccc2)COc2ccc(C#Cc3ccsc3)cc21` [Example 17, (S)—N^1-(5-methyl-4-oxo-7-(thiophen-3-ylethynyl)-2,3,4,5-tetrahydrobenzo[b][1,4]oxazepin-3-yl)-N^2-phenethyloxalamide], for which the inhibition at 1 µM at RIPK1 kinase was at least 75%. For the same compound, in the test with U937 cells, the “Inhibition rate range of compounds” value was “A (A: ≥90%)”.

As to `CN1C(=O)[C@@H](NC(=O)C(=O)NCCc2ccccc2)COc2ccc(C#C[Si](C)(C)C)cc21` [Example 18, (S)—N^1-(5-methyl-4-oxo-7-((trimethylsilyl)ethynyl)-2,3,4,5-tetrahydrobenzo[b][1,4]oxazepin-3-yl)-N^2-phenethyloxalamide], the inhibition at 1 µM on RIPK1 kinase was at least 75%. Further, the “Inhibition rate range of compounds” value in the test with U937 cells is “A (A: ≥90%)”.

Regarding `CC#Cc1ccc2c(c1)N(C)C(=O)[C@@H](NC(=O)C(=O)NCCc1ccccc1)CO2` [Example 19, (S)—N^1-(5-methyl-4-oxo-7-(prop-1-yn-1-yl)-2,3,4,5-tetrahydrobenzo[b][1,4]oxazepin-3-yl)-N^2-phenethyloxalamide], the inhibition at 1 µM on RIPK1 kinase is at least 75%. Besides, the “Inhibition rate range of compounds” value with U937 cells is “A (A: ≥90%)”.

As for `CN1C(=O)[C@@H](NC(=O)C(=O)NCCc2ccccc2)COc2ccc(C#CC3CCOCC3)cc21` [Example 21, (S)—N^1-(5-methyl-4-oxo-7-((tetrahydro-2H-pyran-4-yl)ethynyl)-2,3,4,5-tetrahydrobenzo[b][1,4]oxazepin-3-yl)-N^2-phenethyloxalamide], the inhibition at 1 µM on RIPK1 kinase is at least 75%. The “Inhibition rate range of compounds” value with U937 cells is on record as “A (A: ≥90%)”.

Regarding `CN1C(=O)[C@@H](NC(=O)C(=O)NCCc2ccccc2)COc2ccc(C#Cc3cnn(C)c3)cc21` [Example 22, (S)—N^1-(5-methyl-7-((1-methyl-1H-pyrazol-4-yl)ethynyl)-4-oxo-2,3,4,5-tetrahydrobenzo[b][1,4]oxazepin-3-yl)-N^2-phenethyloxalamide], the inhibition at 1 µM on RIPK1 kinase is at least 75%. Besides, in the test with U937 cells, the “Inhibition rate range of compounds” value is reported as “B (B: 50-89%)”.

With `CN1C(=O)[C@@H](NC(=O)C(=O)NCCc2ccccc2)COc2ccc(C#CC3CCCNC3)cc21` (stereo partly drawn) [Example 24, N^1-((3S)-5-methyl-4-oxo-7-(piperidin-3-ylethynyl)-2,3,4,5-tetrahydrobenzo[b][1,4]oxazepin-3-yl)-N^2-phenethyloxalamide], the inhibition at 1 µM at RIPK1 kinase lay within 50 to 74%. Further, in the test with U937 cells, the “Inhibition rate range of compounds” value was “A (A: ≥90%)”.

Take `CN1C(=O)[C@@H](NC(=O)C(=O)NCCc2ccccc2)COc2ccc(C#Cc3cnc4cccnn34)cc21` [Example 25, (S)—N^1-(7-(imidazo[1,2-b]pyridazin-3-ylethynyl)-5-methyl-4-oxo-2,3,4,5-tetrahydrobenzo[b][1,4]oxazepin-3-yl)-N^2-phenethyloxalamide]: the inhibition at 1 µM at RIPK1 kinase is at least 75%. Moreover, the “Inhibition rate range of compounds” value in the test on U937 cells was “A (A: ≥90%)”.

For the compound `CN1C(=O)[C@@H](NC(=O)C(=O)NCCc2ccccc2)COc2ccc(C#CC(C)(C)O)cc21` [Example 29, (S)—N^1-(7-(3-hydroxy-3-methylbut-1-yn-1-yl)-5-methyl-4-oxo-2,3,4,5-tetrahydrobenzo[b][1,4]oxazepin-3-yl)-N^2-phenethyloxalamide], the inhibition at 1 µM on RIPK1 kinase was at least 75%. Further, the “Inhibition rate range of compounds” value in the test on U937 cells was “A (A: ≥90%)”.

Regarding `CN1C(=O)[C@@H](NC(=O)C(=O)NCCc2ccccc2)COc2ccc(C#CCCO)cc21` [Example 31, (S)—N^1-(7-(4-hydroxybut-1-yn-1-yl)-5-methyl-4-oxo-2,3,4,5-tetrahydrobenzo[b][1,4]oxazepin-3-yl)-N^2-phenethyloxalamide], the inhibition at 1 µM at RIPK1 kinase was at least 75%. In addition, the “Inhibition rate range of compounds” value in the test with U937 cells was “A (A: ≥90%)”.

Consider `CN1C(=O)[C@@H](NC(=O)C(=O)NCc2ccccc2)COc2ccc(C#CCCO)cc21` [Example 32, (S)—N^1-benzyl-N^2-(7-(4-hydroxybut-1-yn-1-yl)-5-methyl-4-oxo-2,3,4,5-tetrahydrobenzo[b][1,4]oxazepin-3-yl)oxalamide], for which the inhibition at 1 µM at RIPK1 kinase is at least 75%. Also, in the test with U937 cells, the “Inhibition rate range of compounds” value is “A (A: ≥90%)”.

`CN1C(=O)[C@@H](NC(=O)C(=O)NCCc2ccccc2F)COc2ccc(C#CCCO)cc21` [Example 33, (S)—N^1-(2-fluorophenethyl)-N^2-(7-(4-hydroxybut-1-yn-1-yl)-5-methyl-4-oxo-2,3,4,5-tetrahydrobenzo[b][1,4]oxazepin-3-yl)oxalamide]: the inhibition at 1 µM at RIPK1 kinase is at least 75%. Besides, in the test on U937 cells, the “Inhibition rate range of compounds” value was “A (A: ≥90%)”.

Consider `CN1C(=O)[C@@H](NC(=O)C(=O)NCCc2cccc(F)c2)COc2ccc(C#CCCO)cc21` [Example 34, (S)—N^1-(3-fluorophenethyl)-N^2-(7-(4-hydroxybut-1-yn-1-yl)-5-methyl-4-oxo-2,3,4,5-tetrahydrobenzo[b][1,4]oxazepin-3-yl)oxalamide], for which the inhibition at 1 µM on RIPK1 kinase is 50 to 74%. In addition, the “Inhibition rate range of compounds” value in the test on U937 cells is reported as “A (A: ≥90%)”.

Take `CN1C(=O)[C@@H](NC(=O)C(=O)NCCc2ccc(F)cc2)COc2ccc(C#CCCO)cc21` [Example 35, (S)—N^1-(4-fluorophenethyl)-N^2-(7-(4-hydroxybut-1-yn-1-yl)-5-methyl-4-oxo-2,3,4,5-tetrahydrobenzo[b][1,4]oxazepin-3-yl)oxalamide]: the inhibition at 1 µM on RIPK1 kinase was 50 to 74%. In the test on U937 cells, the “Inhibition rate range of compounds” value was “A (A: ≥90%)”.
